From ChEMBL document CHEMBL2311382, “Tryptanthrin derivatives as Toxoplasma gondii inhibitors--structure-activity-relationship of the 6-position” (Bioorg Med Chem Lett, 2013)

system: Toxoplasma gondii; test: Antimicrobial activity against Toxoplasma gondii assessed as inhibition of growth measured after 5 days by beta-galactosidase assay; assay type: functional; conditions: 120 h, read-out: ID50 (the source's name)

SMILES	IC50
CC1(O)c2cc(Br)ccc2-n2c1nc1ccccc1c2=O (configuration not stated)	7 µM
O=C1c2cc(Br)ccc2-n2c1nc1ccccc1c2=O	0.00323 µM
O=C1c2ccccc2N[C@H]2[C@H](O)c3cc(Br)ccc3N12	0.002 µM
O=Nc1c2ccccc2n2c(O)c3ccccc3nc12	0.8 µM
CC(=O)N/N=C1/c2ccccc2-n2c1nc1ccccc1c2=O	12 µM
CC1(O)c2ccccc2-n2c1nc1ccccc1c2=O (configuration not stated)	8.7 µM
O=CO/N=C1\c2ccccc2-n2c1nc1ccccc1c2=O	0.62 µM
CON=C1c2cc(Br)ccc2-n2c1nc1ccccc1c2=O (single isomer, unassigned)	0.083 µM
CC(=O)CC1(O)c2ccccc2-n2c1nc1ccccc1c2=O (configuration not stated) [PHAITANTHRINS A]	0.23 µM
CON=C1c2ccccc2-n2c1nc1ccccc1c2=O (mixture of isomers)	1.3 µM
N/N=C1/c2ccccc2-n2c1nc1ccccc1c2=O	2 µM
N/N=C1/c2cc(Br)ccc2-n2c1nc1ccccc1c2=O	0.31 µM
CC(=O)O/N=C1\c2ccccc2-n2c1nc1ccccc1c2=O	1.1 µM
COc1cc(Cc2cnc(N)nc2N)cc(OC)c1OC [TRIMETHOPRIM]	15 µM
O=C1c2ccccc2N[C@H]2[C@H](O)c3ccccc3N12	0.24 µM
O=c1c2ccccc2nc2n1-c1ccc(Br)cc1/C2=N/O	0.085 µM
O=C1c2ccccc2-n2c1nc1ccccc1c2=O [TRYPTANTHRIN]	0.14 µM
CC(=O)O[C@@H]1c2ccccc2N2C(=O)c3ccccc3N[C@@H]12	1 µM
O=C(N/N=C1/c2ccccc2-n2c1nc1ccccc1c2=O)C(F)(F)F	1.6 µM

system: not listed separately; test: Cytotoxicity against human foreskin fibroblast cells by colorimetric method; assay type: cell-based; conditions: human foreskin fibroblast (HFF) cells, read-out: TD50 (the source's name)

SMILES	CC50
CC1(O)c2cc(Br)ccc2-n2c1nc1ccccc1c2=O (configuration not stated)	> 100 µM
O=C1c2cc(Br)ccc2-n2c1nc1ccccc1c2=O	> 100 µM
O=C1c2ccccc2N[C@H]2[C@H](O)c3cc(Br)ccc3N12	> 100 µM
O=Nc1c2ccccc2n2c(O)c3ccccc3nc12	> 100 µM
CC(=O)N/N=C1/c2ccccc2-n2c1nc1ccccc1c2=O	> 100 µM
CC1(O)c2ccccc2-n2c1nc1ccccc1c2=O (configuration not stated)	> 100 µM
O=CO/N=C1\c2ccccc2-n2c1nc1ccccc1c2=O	22 µM
CON=C1c2cc(Br)ccc2-n2c1nc1ccccc1c2=O (single isomer, unassigned)	> 100 µM
CC(=O)CC1(O)c2ccccc2-n2c1nc1ccccc1c2=O (configuration not stated) [PHAITANTHRINS A]	11 µM
CON=C1c2ccccc2-n2c1nc1ccccc1c2=O (mixture of isomers)	> 100 µM
N/N=C1/c2ccccc2-n2c1nc1ccccc1c2=O	32 µM
N/N=C1/c2cc(Br)ccc2-n2c1nc1ccccc1c2=O	79 µM
CC(=O)O/N=C1\c2ccccc2-n2c1nc1ccccc1c2=O	35 µM
COc1cc(Cc2cnc(N)nc2N)cc(OC)c1OC [TRIMETHOPRIM]	> 100 µM
O=C1c2ccccc2N[C@H]2[C@H](O)c3ccccc3N12	12 µM
O=c1c2ccccc2nc2n1-c1ccc(Br)cc1/C2=N/O	50 µM
O=C1c2ccccc2-n2c1nc1ccccc1c2=O [TRYPTANTHRIN]	6.4 µM
CC(=O)O[C@@H]1c2ccccc2N2C(=O)c3ccccc3N[C@@H]12	40 µM
O=C(N/N=C1/c2ccccc2-n2c1nc1ccccc1c2=O)C(F)(F)F	> 100 µM

system: not listed separately; test: Therapeutic index, ratio of TD50 for human foreskin fibroblast cells to ID 50 for Toxoplasma gondii; assay type: cell-based; conditions: read-out: TI

SMILES	selectivity ratio
CC1(O)c2cc(Br)ccc2-n2c1nc1ccccc1c2=O (configuration not stated)	> 14
O=C1c2cc(Br)ccc2-n2c1nc1ccccc1c2=O	> 33000
O=C1c2ccccc2N[C@H]2[C@H](O)c3cc(Br)ccc3N12	> 50000
O=Nc1c2ccccc2n2c(O)c3ccccc3nc12	> 130
CC(=O)N/N=C1/c2ccccc2-n2c1nc1ccccc1c2=O	> 8.3
CC1(O)c2ccccc2-n2c1nc1ccccc1c2=O (configuration not stated)	> 11
O=CO/N=C1\c2ccccc2-n2c1nc1ccccc1c2=O	35
CON=C1c2cc(Br)ccc2-n2c1nc1ccccc1c2=O (single isomer, unassigned)	> 1200
CC(=O)CC1(O)c2ccccc2-n2c1nc1ccccc1c2=O (configuration not stated) [PHAITANTHRINS A]	49
CON=C1c2ccccc2-n2c1nc1ccccc1c2=O (mixture of isomers)	> 77
N/N=C1/c2ccccc2-n2c1nc1ccccc1c2=O	16
N/N=C1/c2cc(Br)ccc2-n2c1nc1ccccc1c2=O	250
CC(=O)O/N=C1\c2ccccc2-n2c1nc1ccccc1c2=O	32
COc1cc(Cc2cnc(N)nc2N)cc(OC)c1OC [TRIMETHOPRIM]	> 3
O=C1c2ccccc2N[C@H]2[C@H](O)c3ccccc3N12	50
O=c1c2ccccc2nc2n1-c1ccc(Br)cc1/C2=N/O	590
O=C1c2ccccc2-n2c1nc1ccccc1c2=O [TRYPTANTHRIN]	45
CC(=O)O[C@@H]1c2ccccc2N2C(=O)c3ccccc3N[C@@H]12	40
O=C(N/N=C1/c2ccccc2-n2c1nc1ccccc1c2=O)C(F)(F)F	> 63
